Legend:
RNR (RNR1:RNR2 1:1) = target: T1, RNR (RNR1:RNR2 1:1) (Homo sapiens, UniProt P23921+P31350); test: RNR enzyme activity, rapid-fire mass spectrometry (RF/MS) assay; type: biochemical; settings: RNR 50 nM, 1:1 (RNR1:RNR2); CDP 5 μM; ATP 1 mM; 37° C., 45 min; compounds screened up to 50 μM
T1 sequence (P23921 1-792): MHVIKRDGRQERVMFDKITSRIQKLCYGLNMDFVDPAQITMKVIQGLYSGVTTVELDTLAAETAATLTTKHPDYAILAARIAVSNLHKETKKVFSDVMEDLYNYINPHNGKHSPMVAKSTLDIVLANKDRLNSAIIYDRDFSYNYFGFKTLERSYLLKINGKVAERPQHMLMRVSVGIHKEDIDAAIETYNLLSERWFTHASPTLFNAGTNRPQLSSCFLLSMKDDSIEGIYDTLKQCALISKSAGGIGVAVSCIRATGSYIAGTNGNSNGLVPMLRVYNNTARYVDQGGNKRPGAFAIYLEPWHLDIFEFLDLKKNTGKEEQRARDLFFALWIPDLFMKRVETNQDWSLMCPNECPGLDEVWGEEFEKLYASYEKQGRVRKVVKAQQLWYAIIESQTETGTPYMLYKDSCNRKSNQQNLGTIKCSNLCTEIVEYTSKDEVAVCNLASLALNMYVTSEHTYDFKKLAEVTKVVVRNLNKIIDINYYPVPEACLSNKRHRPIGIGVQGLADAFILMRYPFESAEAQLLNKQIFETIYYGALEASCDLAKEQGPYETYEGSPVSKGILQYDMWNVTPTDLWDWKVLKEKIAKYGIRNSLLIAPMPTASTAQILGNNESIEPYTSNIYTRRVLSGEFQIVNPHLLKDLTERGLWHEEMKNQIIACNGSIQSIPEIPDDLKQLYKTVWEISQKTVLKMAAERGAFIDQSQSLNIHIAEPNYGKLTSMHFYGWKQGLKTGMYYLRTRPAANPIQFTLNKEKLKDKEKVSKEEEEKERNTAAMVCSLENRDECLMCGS
T1 sequence (P31350 1-389): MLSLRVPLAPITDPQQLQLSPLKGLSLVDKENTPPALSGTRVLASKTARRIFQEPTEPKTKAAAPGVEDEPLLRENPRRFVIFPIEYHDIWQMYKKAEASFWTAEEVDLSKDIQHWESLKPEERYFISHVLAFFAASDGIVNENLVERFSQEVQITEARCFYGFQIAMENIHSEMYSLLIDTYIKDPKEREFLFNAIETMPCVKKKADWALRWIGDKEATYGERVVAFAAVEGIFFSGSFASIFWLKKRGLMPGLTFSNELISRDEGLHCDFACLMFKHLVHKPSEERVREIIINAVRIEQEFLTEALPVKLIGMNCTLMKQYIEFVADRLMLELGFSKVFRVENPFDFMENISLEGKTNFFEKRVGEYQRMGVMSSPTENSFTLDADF
Description: A rapid-fire mass spectrometry (RF/MS) assay was used to assess RNR enzyme activity using a 384 well plate and a robotic platform.
The plate layout included two validated reference compounds (Triapine (3-AP) and Hydroxyurea (HU)): • A dose response in duplicate, top concentration: 5 μM (3-AP) and 250 μM (HU), semi-log • dilutions. • Spike wells in triplicate randomly spotted at four concentrations: • 250 μM, 100 μM, 30 μM and 2 μM for HU • 5 μM, 2 μM, 0.6 μM and 0.04 μM for 3-AP
First, the multidrop pipes were saturated for 30 minutes with enzymatic solution. Then 30 μL of Stop solution was distributed in column 24. Next, 15 μL of enzyme was distributed in column 1 to 24. Next, a pre-incubation step of 15 minutes at room temperature occurred, followed by distribution of 15 μL of substrate solution (column 1 to 24). Next, the plate was incubated for 45 minutes at 37° C. 30 μL of Stop solution was distributed to columns 1 to 23.
The final parameters for the enzyme reactions were: • Incubation: 37° C., 45 min • [CDP]: 5 μM: [ATP]: 1 mM; [NADPH]: No • [RNR]final: 50 nM with 1:1 (RNR1:RNR2) ratio • Final volume: 30 μL • Stop solution: 6% HCOOH containing 2 μM of 15

[1] = system: pCHK1 (S345) in Colo320 DM cells; test: Alphalisa assay, detection of pCHK1 (S345) in Colo320 DM cells; type: cell-based; settings: Homo sapiens, COLO 320DM, compound incubation overnight (approximately 16 hours)
Description: Colo320 DM cells (ATCC #CCL-220, derived from human colorectal adenocarcinoma, Dukes' type C) were seeded on a 96-well, cell culture treated assay plate at a density of 50,000 cells/well in 200 μL of RPMI-1640 media supplemented with 10% Fetal Bovine Serum and incubated at 37° C. overnight. The following day, test compound dilutions were added directly to the plated cells by a Tecan digital dispenser to a final DMSO concentration of <0.5%, and incubated at 37° C. overnight (approximately 16 hours). The following day all cull culture media was removed from the cells. 75 μL of 1× AlphaLisa lysis buffer was added to each well and plates were agitated on a shaker for 30 minutes at room temperature. The lysis of cells and detection of pCHK1 (S345) were performed with regents contained within the AlphaLisa Sure Fire assay kit (Perkin Elmer #ALSU-PCHK1-A) according to the manufacturer's instructions. 10 μL of each lysate was then transferred to a white, 384-well assay plate (Perkin Elmer #6008280), 5 μL of Acceptor mix was then added to each well of lysate in the white, 384-well assay plate and incubated in the dark at room temperature for 60 minutes. 5 μL of Donor mix was then added to each well of the white, 384-well assay plate in subdued light and incubated at room temperature for 60 minutes. Plates were read on an Alpha Technology-compatible plate reader using standard AlphaLisa settings.

- IC50 (RNR (RNR1:RNR2 1:1)): 50 to 100 nM
- IC50 [1]: 1000 to 5000 nM
Compound: CN(c1ccc(O)cc1)C1CCN(S(=O)(=O)c2ccc3cc[nH]c3c2)CC1 [compound 15, 4-((1-((1H-indol-6-yl)sulfonyl)piperidin-4-yl)(methyl)amino)phenol]
